Values of other authors, collected in patent publication US20110052648A1, “ORAL MODIFIED-RELEASE FORMULATIONS CONTAINING THIAZEPINES” (priority 2008, published 2011).

In the case of `OCCOCCN1CCN(C2=Nc3ccccc3Sc3ccccc32)CC1` [Quetiapine, 11-[4-[2-(2-hydroxyethoxy)ethyl]-1-piperazinyl]dibenzo[b,f][1,4]-thiazepine], the solubility in water is listed as “moderately soluble”.
